For one experiment, the target named is T1, CDK2 (Homo sapiens, UniProt P24941).
T1 construct: endogenous in cells; host or cells: MDA-MB-231
The experiment in a line: CDK protein degradation activity (Western blotting), CDK2. Type of experiment: cell-based. The note with it: MDA-MB-231 cells, 16 hours, Western blot. The procedure, abridged:
(§1)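 Degradation is judged from CDK2 and CDK9 band intensity relative to tubulin and DMSO-treated cells, after 16 h exposure of MDA-MB-231 cells to three compound concentrations (100 nM, 1 μM, 10 μM).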
In general terms: Immunoblotting shows a protein as a band on a membrane.

Another experiment deals with T2, CDK9 (Homo sapiens, UniProt P50750).
T2 construct: endogenous in cells; host or cells: MDA-MB-231
The experiment in a line: CDK protein degradation activity (Western blotting), CDK9. The note with it: MDA-MB-231 cells, 16 hours, Western blot. Type of experiment: cell-based. A digest of the protocol:
as §1

SMILES strings stand for the structures.

T2 sequence (P50750 whole entry): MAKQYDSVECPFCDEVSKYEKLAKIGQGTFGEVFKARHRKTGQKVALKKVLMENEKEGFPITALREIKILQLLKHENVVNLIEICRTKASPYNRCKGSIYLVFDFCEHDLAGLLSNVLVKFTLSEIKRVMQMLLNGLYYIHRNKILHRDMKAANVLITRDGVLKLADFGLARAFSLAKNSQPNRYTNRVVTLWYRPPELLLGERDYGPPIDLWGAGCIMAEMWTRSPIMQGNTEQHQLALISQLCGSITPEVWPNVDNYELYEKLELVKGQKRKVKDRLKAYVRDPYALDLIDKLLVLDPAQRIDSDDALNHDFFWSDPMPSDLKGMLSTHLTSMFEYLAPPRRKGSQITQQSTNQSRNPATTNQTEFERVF

Take `O=C1CC[C@@H](c2ccc(OCC(=O)N3CCC(CN4CCN(c5ccc(Nc6ncnc7c6ncn7C6CC(NC(=O)Cc7ccccc7)C6)cc5)CC4)CC3)cc2)C(=O)N1` (stereo partly drawn) [Compound 202, N-((1s,3s)-3-(6-((4-(4-((1-(2-(4-(2,6-dioxopiperidin-3-yl)phenoxy)acetyl)piperidin-4-yl)methyl)piperazin-1-yl)phenyl)amino)-9H-purin-9-yl)cyclobutyl)-2-phenylacetamide]: on CDK2, the “Enzyme degradation CDK2 (% remaining) @ 0.1 μM” value was determined as 30%, the “Enzyme degradation CDK2 (% remaining) @ 1 μM” value was 20% and the “Enzyme degradation CDK2 (% remaining) @ 10 μM” value was determined as 40%. Besides, on CDK9, the “Enzyme degradation CDK9 (% remaining) @ 0.1 μM” value was 10%, the “Enzyme degradation CDK9 (% remaining) @ 1 μM” value came to 0% and the “Enzyme degradation CDK9 (% remaining) @ 10 μM” value came to 0%.
For the molecule `O=C1CC[C@H](N2C(=O)c3ccc(NCC(=O)N4CCC(CN5CCC(c6ccc(Nc7ncnc8c7ncn8C7CC(NC(=O)Cc8ccccc8)C7)cc6)CC5)CC4)cc3C2=O)C(=O)N1` (stereo partly drawn) [Compound 290, N-((1s,3s)-3-(6-((4-(1-((1-((2-(2,6-dioxopiperidin-3-yl)-1,3-dioxoisoindolin-5-yl)glycyl)piperidin-4-yl)methyl)piperidin-4-yl)phenyl)amino)-9H-purin-9-yl)cyclobutyl)-2-phenylacetamide], at CDK2, the “Enzyme degradation CDK2 (% remaining) @ 0.1 μM” value is reported as 20%, the “Enzyme degradation CDK2 (% remaining) @ 1 μM” value came out at 20% and the “Enzyme degradation CDK2 (% remaining) @ 10 μM” value was 30%. In addition, on CDK9, the “Enzyme degradation CDK9 (% remaining) @ 0.1 μM” value was 10%, the “Enzyme degradation CDK9 (% remaining) @ 1 μM” value came out at 0% and the “Enzyme degradation CDK9 (% remaining) @ 10 μM” value is recorded as 0%.
Consider `Cc1cccc(C(=O)NC2CC(n3cnc4c(Nc5ccc(N6CCN(CC7CCN(c8ccc9nnn([C@H]%10CCC(=O)NC%10=O)c(=O)c9c8)CC7)CC6)cc5)ncnc43)C2)n1` (stereo partly drawn) [Compound 378, N-((1s,3s)-3-(6-((4-(4-((1-(3-(2,6-dioxopiperidin-3-yl)-4-oxo-3,4-dihydrobenzo[d][1,2,3]triazin-6-yl)piperidin-4-yl)methyl)piperazin-1-yl)phenyl)amino)-9H-purin-9-yl)cyclobutyl)-6-methylpicolinamide], for which, at CDK2, the “Enzyme degradation CDK2 (% remaining) @ 0.1 μM” value is 10/10/10%, the “Enzyme degradation CDK2 (% remaining) @ 1 μM” value is 10/10/10% and the “Enzyme degradation CDK2 (% remaining) @ 10 μM” value is given as 10/10/10%. At CDK9, the “Enzyme degradation CDK9 (% remaining) @ 0.1 μM” value is listed as 0/0/0%, the “Enzyme degradation CDK9 (% remaining) @ 1 μM” value is recorded as 0/0/0% and the “Enzyme degradation CDK9 (% remaining) @ 10 μM” value is listed as 0/0/0%.
On to `O=C1CC[C@H](N2C(=O)c3cccc(N4CCC5(CC4)CC(N4CCC(c6ccc(Nc7ncnc8c7ncn8C7CC(NC(=O)Cc8ccccc8)C7)cc6)CC4)C5)c3C2=O)C(=O)N1` (stereo partly drawn) [Compound 297, N-((1s,3s)-3-(6-((4-(1-(7-(2-(2,6-dioxopiperidin-3-yl)-1,3-dioxoisoindolin-4-yl)-7-azaspiro[3.5]nonan-2-yl)piperidin-4-yl)phenyl)amino)-9H-purin-9-yl)cyclobutyl)-2-phenylacetamide], for which, at CDK2, the “Enzyme degradation CDK2 (% remaining) @ 0.1 μM” value is recorded as 20%, the “Enzyme degradation CDK2 (% remaining) @ 1 μM” value was 40% and the “Enzyme degradation CDK2 (% remaining) @ 10 μM” value is recorded as 40%. Further, at CDK9, the “Enzyme degradation CDK9 (% remaining) @ 0.1 μM” value came out at 10%, the “Enzyme degradation CDK9 (% remaining) @ 1 μM” value is 0% and the “Enzyme degradation CDK9 (% remaining) @ 10 μM” value came to 0%.
In the case of `O=C1CC[C@H](N2C(=O)c3ccc(NCC(=O)N4CCC5(CC4)CC(N4CCC(c6ccc(Nc7ncnc8c7ncn8[C@H]7C[C@@H](NC(=O)Cc8ccccc8)C7)cc6)CC4)C5)cc3C2=O)C(=O)N1` (racemic) [Compound 296, N-((1s,3s)-3-(6-((4-(1-(7-((2-(2,6-dioxopiperidin-3-yl)-1,3-dioxoisoindolin-5-yl)glycyl)-7-azaspiro[3.5]nonan-2-yl)piperidin-4-yl)phenyl)amino)-9H-purin-9-yl)cyclobutyl)-2-phenylacetamide], on CDK2, the “Enzyme degradation CDK2 (% remaining) @ 0.1 μM” value is recorded as 20%, the “Enzyme degradation CDK2 (% remaining) @ 1 μM” value amounted to 0% and the “Enzyme degradation CDK2 (% remaining) @ 10 μM” value amounted to 0%. At CDK9, the “Enzyme degradation CDK9 (% remaining) @ 0.1 μM” value is 0/0/0%, the “Enzyme degradation CDK9 (% remaining) @ 1 μM” value is recorded as 0/0/0% and the “Enzyme degradation CDK9 (% remaining) @ 10 μM” value is listed as 0/0/0%.
Regarding `O=C1CC[C@H](N2C(=O)c3ccc(N4CCC(C(=O)N5CCC(CCN6CCN(c7ccc(Nc8ncnc9c8ncn9C8CC(NC(=O)c9c(Cl)cccc9Cl)C8)cc7)CC6)CC5)CC4)cc3C2=O)C(=O)N1` (stereo partly drawn) [Compound 413, 2,6-dichloro-N-((1s,3s)-3-(6-((4-(4-(2-(1-(1-(2-(2,6-dioxopiperidin-3-yl)-1,3-dioxoisoindolin-5-yl)piperidin-4-carbonyl)piperidin-4-yl)ethyl)piperazin-1-yl)phenyl)amino)-9H-purin-9-yl)cyclobutyl)benzamide], at CDK2, the “Enzyme degradation CDK2 (% remaining) @ 0.1 μM” value turned out to be 30%, the “Enzyme degradation CDK2 (% remaining) @ 1 μM” value amounted to 20% and the “Enzyme degradation CDK2 (% remaining) @ 10 μM” value turned out to be 20%. On CDK9, the “Enzyme degradation CDK9 (% remaining) @ 0.1 μM” value is given as 10/10/10%, the “Enzyme degradation CDK9 (% remaining) @ 1 μM” value is 10/10/10% and the “Enzyme degradation CDK9 (% remaining) @ 10 μM” value was 10/10/10%.
For `Cc1cccc(C(=O)N[C@H]2C[C@@H](n3cnc4c(NCc5cccc(OCCCN6CCN(C(=O)CNc7cccc8c7C(=O)N([C@H]7CCC(=O)NC7=O)C8=O)CC6)c5)ncnc43)C2)n1` [Compound 103, N-((1s,3s)-3-(6-((3-(3-(4-((2-(2,6-dioxopiperidin-3-yl)-1,3-dioxoisoindolin-4-yl)glycyl)piperazin-1-yl)propoxy)benzyl)amino)-9H-purin-9-yl)cyclobutyl)-6-methylpicolinamide], on CDK2, the “Enzyme degradation CDK2 (% remaining) @ 0.1 μM” value was 40%, the “Enzyme degradation CDK2 (% remaining) @ 1 μM” value is listed as 40% and the “Enzyme degradation CDK2 (% remaining) @ 10 μM” value came to 60%. Further, at CDK9, the “Enzyme degradation CDK9 (% remaining) @ 0.1 μM” value is 30%, the “Enzyme degradation CDK9 (% remaining) @ 1 μM” value is reported as 10% and the “Enzyme degradation CDK9 (% remaining) @ 10 μM” value was 10%.
Take `O=C1CC[C@H](N2C(=O)c3ccc(NCC(=O)N4CCC(CC(=O)N5CCN(c6ccc(Nc7ncnc8c7ncn8C7CC(NC(=O)Cc8ccccc8)C7)cc6)CC5)CC4)cc3C2=O)C(=O)N1` (stereo partly drawn) [Compound 213, N-((1s,3s)-3-(6-((4-(4-(2-(1-((2-(2,6-dioxopiperidin-3-yl)-1,3-dioxoisoindolin-5-yl)glycyl)piperidin-4-yl)acetyl)piperazin-1-yl)phenyl)amino)-9H-purin-9-yl)cyclobutyl)-2-phenylacetamide]: on CDK2, the “Enzyme degradation CDK2 (% remaining) @ 0.1 μM” value was 50%, the “Enzyme degradation CDK2 (% remaining) @ 1 μM” value worked out at 70% and the “Enzyme degradation CDK2 (% remaining) @ 10 μM” value is on record as 50%. Also, at CDK9, the “Enzyme degradation CDK9 (% remaining) @ 0.1 μM” value came to 70%, the “Enzyme degradation CDK9 (% remaining) @ 1 μM” value was 30% and the “Enzyme degradation CDK9 (% remaining) @ 10 μM” value is 10%.
In the case of `O=C1CC[C@H](N2C(=O)c3cccc(N4CCC5(CC4)CC(N4CCN(c6ccc(Nc7ncnc8c7ncn8[C@H]7C[C@@H](NC(=O)Cc8ccccc8)C7)cc6)CC4)C5)c3C2=O)C(=O)N1` [Compound 209, N-((1s,3s)-3-(6-((4-(4-(7-(2-(2,6-dioxopiperidin-3-yl)-1,3-dioxoisoindolin-4-yl)-7-azaspiro[3.5]nonan-2-yl)piperazin-1-yl)phenyl)amino)-9H-purin-9-yl)cyclobutyl)-2-phenylacetamide], on CDK2, the “Enzyme degradation CDK2 (% remaining) @ 0.1 μM” value is listed as 70%, the “Enzyme degradation CDK2 (% remaining) @ 1 μM” value turned out to be 60% and the “Enzyme degradation CDK2 (% remaining) @ 10 μM” value is reported as 30%. In addition, on CDK9, the “Enzyme degradation CDK9 (% remaining) @ 0.1 μM” value was 30%, the “Enzyme degradation CDK9 (% remaining) @ 1 μM” value was found to be 20% and the “Enzyme degradation CDK9 (% remaining) @ 10 μM” value was 10%.
As to `Cc1cccc(C(=O)N[C@H]2C[C@@H](n3cnc4c(NC5CCN(CCOC6CCN(C(=O)CNc7ccc8c(c7)C(=O)N(C7CCC(=O)NC7=O)C8=O)CC6)CC5)ncnc43)C2)n1` (stereo partly drawn) [Compound 45, N-((1s,3s)-3-(6-((1-(2-((1-((2-(2,6-dioxopiperidin-3-yl)-1,3-dioxoisoindolin-5-yl)glycyl)piperidin-4-yl)oxy)ethyl)piperidin-4-yl)amino)-9H-purin-9-yl)cyclobutyl)-6-methylpicolinamide], at CDK2, the “Enzyme degradation CDK2 (% remaining) @ 0.1 μM” value came out at 80%, the “Enzyme degradation CDK2 (% remaining) @ 1 μM” value turned out to be 60% and the “Enzyme degradation CDK2 (% remaining) @ 10 μM” value was 90%. In addition, at CDK9, the “Enzyme degradation CDK9 (% remaining) @ 0.1 μM” value was 0/0/0%, the “Enzyme degradation CDK9 (% remaining) @ 1 μM” value is on record as 0/0/0% and the “Enzyme degradation CDK9 (% remaining) @ 10 μM” value was 0/0/0%.
Turning to `O=C1CC[C@H](N2C(=O)c3cccc(OCC(=O)N4CCC(CN5CCC(CNc6ncnc7c6ncn7C6CC(NC(=O)Cc7ccccc7)C6)CC5)CC4)c3C2=O)C(=O)N1` (stereo partly drawn) [Compound 182, N-((1s,3s)-3-(6-(((1-((1-(2-((2-(2,6-dioxopiperidin-3-yl)-1,3-dioxoisoindolin-4-yl)oxy)acetyl)piperidin-4-yl)methyl)piperidin-4-yl)methyl)amino)-9H-purin-9-yl)cyclobutyl)-2-phenylacetamide], on CDK2, the “Enzyme degradation CDK2 (% remaining) @ 0.1 μM” value is given as 70%, the “Enzyme degradation CDK2 (% remaining) @ 1 μM” value is recorded as 50% and the “Enzyme degradation CDK2 (% remaining) @ 10 μM” value was determined as 50%. Further, on CDK9, the “Enzyme degradation CDK9 (% remaining) @ 0.1 μM” value is recorded as 20%, the “Enzyme degradation CDK9 (% remaining) @ 1 μM” value is 10% and the “Enzyme degradation CDK9 (% remaining) @ 10 μM” value was found to be 0%.

The record behind these values is patent US20260125382A1, “COMPOUNDS FOR INHIBITING OR DEGRADING CDK2 AND/OR CDK9 AND MEDICINAL USE THEREOF” (KOREA RESEARCH INSTITUTE OF CHEMICAL TECHNOLOGY, priority 2022, published 2026).
